Reference: US20210186960A1, “MODULATORS OF INDOLEAMINE 2,3-DIOXYGENASE” (GLAXOSMITHKLINE INTELLECTUAL PROPERTY DEVELOPMENT LIMITED, priority 2017, published 2021)
Blank lines part the entries; values can stand above or below the compound they belong to.

Experiments:
[1] = target: T1, indoleamine 2, 3-dioxygenase (IDO1) (Homo sapiens, UniProt P14902); assay: IDO1 PBMC RapidFire MS assay (kynurenine detection); assay type: cell-based; details: IFN-γ/LPS stimulated human PBMC, kynurenine by MS, 2 days; read-out: PBMC PXC50 (converted)
T1 construct: to induce the expression of indoleamine 2, 3-dioxygenase (IDO1); host or cells: human PBMC stimulated with IFN-gamma and LPS
T1 sequence (P14902 whole entry): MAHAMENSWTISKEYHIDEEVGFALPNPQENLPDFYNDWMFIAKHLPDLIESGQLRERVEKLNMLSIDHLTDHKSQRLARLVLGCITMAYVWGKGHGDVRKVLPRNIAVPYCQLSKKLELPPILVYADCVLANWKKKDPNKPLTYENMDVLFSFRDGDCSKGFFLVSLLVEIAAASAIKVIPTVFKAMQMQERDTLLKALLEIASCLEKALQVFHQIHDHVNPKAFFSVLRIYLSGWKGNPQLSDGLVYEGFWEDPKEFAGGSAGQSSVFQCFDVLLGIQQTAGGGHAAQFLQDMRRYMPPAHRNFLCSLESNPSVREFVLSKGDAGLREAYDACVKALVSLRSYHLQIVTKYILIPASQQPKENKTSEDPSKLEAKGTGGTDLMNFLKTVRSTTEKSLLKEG
Description: (§1) Compounds of the present invention were tested via high-throughput cellular assays utilizing detection of kynurenine via mass spectrometry and cytotoxicity as end-points. For the mass spectrometry and cytotoxicity assays, human peripheral blood mononuclear cells (PBMC) (PB003F; AllCells®, Alameda, Calif.) were stimulated with human interferon-γ (IFN-γ) (Sigma-Aldrich Corporation, St. Louis, Mo.) and lipopolysaccharide from Salmonella minnesota (LPS) (Invivogen, San Diego, Calif.) to induce the expression of indoleamine 2, 3-dioxygenase (IDO1). Compounds with IDO1 inhibitory properties decreased the amount of kynurenine produced by the cells via the tryptophan catabolic pathway. Cellular toxicity due to the effect of compound treatment was measured using CellTiter-Glo® reagent (CTG) (Promega Corporation, Madison, Wis.), which is based on luminescent detection of ATP, an indicator of metabolically active cells.
(§2) In preparation for the assays, test compounds were serially diluted 3-fold in
(§3) DMSO from a typical top concentration of 1 mM or 5 mM and plated at 0.5 μL in 384-well, polystyrene, clear bottom, tissue culture treated plates with lids (Greiner Bio-One, Kremsmünster, Austria) to generate 11-point dose response curves. Low control wells (0% kynurenine or 100% cytotoxicity) contained either 0.5 μL of DMSO in the presence of unstimulated (−IFN-γ/−LPS) PBMCs for the mass spectrometry assay or 0.5 μL of DMSO in the absence of cells for the cytotoxicity assay, and high control wells (100% kynurenine or 0% cytotoxicity) contained 0.5 μL of DMSO in the presence of stimulated (+IFN-γ/+LPS) PBMCs for both the mass spectrometry and cytotoxicity assays.
(§4) Frozen stocks of PBMCs were washed and recovered in RPMI 1640 medium (Thermo Fisher Scientific, Inc., Waltham, Mass.) supplemented with 10% v/v heat-inactivated fetal bovine serum (FBS) (Thermo Fisher Scientific, Inc., Waltham, Mass.), and 1× penicillin-streptomycin antibiotic solution (Thermo Fisher Scientific, Inc., Waltham, Mass.). The cells were diluted to 1,000,000 cells/mL in the supplemented RPMI 1640 medium. 50 μL of either the cell suspension, for the mass spectrometry assay, or medium alone, for the cytotoxicity assay, were added to the low control wells, on the previously prepared 384-well compound plates, resulting in 50,000 cells/well or 0 cells/well respectively. IFN- y and LPS were added to the remaining cell suspension at final concentrations of 100 ng/ml and 50 ng/ml respectively, and 50 μL of the stimulated cells were added to all remaining wells on the 384-well compound plates. The plates, with lids, were then placed in a 37 °C, 5% CO2 humidified incubator for 2 days.
(§5) Following incubation, the 384-well plates were removed from the incubator and allowed to equilibrate to room temperature for 30 minutes. For the cytotoxicity assay, CellTiter-Glo® was prepared according to the manufacturer's instructions, and 40 μL were added to each plate well. After a twenty minute incubation at room temperature, luminescence was read on an EnVision® Multilabel Reader (Perkin Elmer Inc., Waltham, Mass.). For the mass spectrometry assay, 10 μL of supernatant from each well of the compound-treated plates were added to 40 μL of acetonitrile, containing 10 μM of an internal standard for normalization, in 384-well, polypropylene, V-bottom plates (Greiner Bio-One, Kremsmunster, Austria) to extract the organic analytes. Following centrifugation at 2000 rpm for 10 minutes, 10 μL from each well of the acetonitrile extraction plates were added to 90 μL of sterile, distilled H2O in 384-well, polypropylene, V-bottom plates for analysis of kynurenine and the internal standard on the RapidFire 300 (Agilent Technologies, Santa Clara, Calif.) and 4000 QTRAP MS (SCIEX, Framingham, Mass.). MS data were integrated using Agilent Technologies' RapidFire Integrator software, and data were normalized for analysis as a ratio of kynurenine to the internal standard. […]

[2] = system: human peripheral blood mononuclear cells (PBMC); assay: PBMC cytotoxicity assay (CellTiter-Glo); assay type: cell-based; details: pCC50, CellTiter-Glo, stimulated human PBMC, 2 days
Description: as §1, §2, §3, §4, §5

[3] = Rat oral PK studies of prodrugs at 5 mg/kg; assay type: in vivo; details: analyte as labelled
Description: Rat oral PK studies of prodrugs at 5 mg/kg dose (solution in 100% (40 mg oleic acid+25mg Tween 80+2 mL of PBS/fresh) at 0.5 mg/mL).

[4] = Plasma PK and tissue distribution after oral dosing of prodrug EXAMPLE 7 (5 mg/kg); assay type: in vivo; details: PO 5 mg/kg EXAMPLE 7 (prodrug), male Wistar Han rat, analyte as labelled
Description: Tissue Distribution of drug intermediate C4 from oral dosing of C4 and of intermediate C4 from oral dosing of example 7 in rats
• Wistar Han rat, 185-197 g, male, N=8, purchased from Beijing Vital River Co. LTD. Qualification No.: SCXK(J) 2016-0011 11400700240027. Fasted overnight and fed 4 hr post dose. PO: 5 mg/kg (10 mL/kg) via oral gavage(N=8). Sampling at 1, 4, 8 and 24 hr , 4 time points, terminal bleeding for plasma, liver, lymph nodes and spleen collected at each time point

[5] = after PO dose of 5 mg/kg example 6 in male Wistar Han rat

- IC50 [1]: 0.158 µM
Structure (SMILES): CCCCCCCCCCCCCCCC(=O)OCC(COC(=O)CCCCCCCCCCCCCCC)OC(=O)CCCC(=O)O[C@H]1CC[C@H](N(CC(C)C)c2ccc([C@H](C)CC(=O)O)cc2Nc2ccc(Cl)nc2)CC1 [example 1, (R)-3-(4-((trans-4-((5-((1,3-bis(palmitoyloxy)propan-2-yl)oxy)-5-oxopentanoyl)oxy)cyclohexyl) (isobutyl)amino)-3-((6-chloropyridin-3-yl)amino)phenyl)butanoic acid]
- PBMC TOX PXC50 [2]: <5

- IC50 [1]: 0.251 µM
- DNAUC0_20 ([3]; after PO dose of 5 mg/kg example 2 in male Wistar Han rat): not detected
Structure (SMILES): CCCCCCCCCCCCCCCC(=O)OCC(COC(=O)CCCCCCCCCCCCCCC)OC(=O)CCCC(=O)O[C@H]1CC[C@H](N(CC(C)C)c2ccc([C@H](C)CC(=O)O)cc2Nc2cnc(Cl)cn2)CC1 [example 2, (R)-3-(4-((trans-4-((5-((1,3-bis(palmitoyloxy)propan-2-yl)oxy)-5-oxopentanoyl)oxy)cyclohexyl) (isobutyl)amino)-3-((5-chloropyrazin-2-yl)amino)phenyl)butanoic acid]
- PBMC TOX PXC50 [2]: <5

- IC50 [1]: 1.26 µM
Structure (SMILES): CCCCCCCCCCCCCCCC(=O)OCC(COC(=O)CCCCCCCCCCCCCCC)OC(=O)CC(C)CC(=O)O[C@H]1CC[C@H](N(CC(C)C)c2ccc([C@H](C)CC(=O)O)cc2Nc2ccc(Cl)nc2)CC1 (stereo partly drawn) [example 3, (3R)-3-(4-((trans-4-((5-((1,3-bis(palmitoyloxy)propan-2-yl)oxy)-3-methyl-5-oxopentanoyl)oxy)cyclohexyl) (isobutyl)amino)-3-((6-chloropyridin-3-yl)amino)phenyl)butanoic acid]
- PBMC TOX PXC50 [2]: <5

- IC50 [1]: 7.94 µM
Structure (SMILES): CCCCCCCCCCCCCCCC(=O)OCC(COC(=O)CCCCCCCCCCCCCCC)OC(=O)CC(C)CC(=O)O[C@H]1CC[C@H](N(CC(C)C)c2ccc([C@H](C)CC(=O)O)cc2Nc2cnc(Cl)cn2)CC1 (stereo partly drawn) [example 4, (3R)-3-(4-((trans-4-((5-((1,3-bis(palmitoyloxy)propan-2-yl)oxy)-3-methyl-5-oxopentanoyl)oxy)cyclohexyl) (isobutyl)amino)-3-((5-chloropyrazin-2-yl)amino)phenyl)butanoic acid]
- PBMC TOX PXC50 [2]: <5

- IC50 [1]: 0.631 µM
- DNAUC0_20 ([3]; after PO dose of 5 mg/kg example 5 in male Wistar Han rat): not detected
Structure (SMILES): CCCCCCCCCCCCCCCC(=O)OCC(COC(=O)CCCCCCCCCCCCCCC)OC(=O)CC(C)CC(=O)Oc1cc(C)cc(C)c1C(C)(C)CC(=O)O[C@H]1CC[C@H](N(CC(C)C)c2ccc([C@H](C)CC(=O)O)cc2Nc2cnc(Cl)cn2)CC1 (stereo partly drawn) [example 5, (3R)-3-(4-((trans-4-((3-(2-((5-((1,3-bis(palmitoyloxy)propan-2-yl)oxy)-3-methyl-5-oxopentanoyl)oxy)-4,6-dimethylphenyl)-3-methylbutanoyl)oxy)cyclohexyl)(isobutyl)amino)-3-((5-chloropyrazin-2-yl)amino)phenyl)butanoic acid]
- PBMC TOX PXC50 [2]: <5

- IC50 [1]: 3.16 µM
- DNAUC0_20 [3, 5]: not detected
Structure (SMILES): CCCCCCCCCCCCCCCC(=O)OCC(COC(=O)CCCCCCCCCCCCCCC)OC(=O)CC(C)CC(=O)OCOC(=O)C[C@@H](C)c1ccc(N(CC(C)C)C2CCOCC2)c(Nc2ccc(Cl)nc2)c1 (stereo partly drawn) [example 6, 1-(1,3-bis(palmitoyloxy)propan-2-yl) 5-((((R)-3-(3-((6-chloropyridin-3-yl)amino)-4-(isobutyl(tetrahydro-2H-pyran-4-yl)amino)phenyl)butanoyl)oxy)methyl) 3-methylpentanedioate]
- PBMC TOX PXC50 [2]: <5

- IC50 [1]: 1 µM
- liver Concentration Mean ([4]; 1 hr): BQL
- liver Concentration individual ([4]; 1 hr): BQL
- lymph node Concentration Mean ([4]; 1 hr): BQL
- lymph node Concentration individual ([4]; 1 hr): BQL
- plasma Concentration Mean ([4]; 1 hr): BQL
- plasma Concentration individual ([4]; 1 hr): BQL
- spleen Concentration Mean ([4]; 1 hr): BQL
- spleen Concentration individual ([4]; 1 hr): BQL
- liver Concentration Mean ([4]; 4 hr): BQL
- liver Concentration individual ([4]; 4 hr): BQL
- lymph node Concentration Mean ([4]; 4 hr): BQL
- lymph node Concentration individual ([4]; 4 hr): BQL
- plasma Concentration Mean ([4]; 4 hr): BQL
- plasma Concentration individual ([4]; 4 hr): BQL
- spleen Concentration Mean ([4]; 4 hr): BQL
- spleen Concentration individual ([4]; 4 hr): BQL
- liver Concentration Mean ([4]; 8 hr): BQL
- liver Concentration individual ([4]; 8 hr): BQL
- lymph node Concentration Mean ([4]; 8 hr): BQL
- lymph node Concentration individual ([4]; 8 hr): BQL
- plasma Concentration Mean ([4]; 8 hr): BQL
- plasma Concentration individual ([4]; 8 hr): BQL
- spleen Concentration Mean ([4]; 8 hr): BQL
- spleen Concentration individual ([4]; 8 hr): BQL
- liver Concentration Mean ([4]; 24 hr): BQL
- liver Concentration individual ([4]; 24 hr): BQL
- lymph node Concentration Mean ([4]; 24 hr): BQL
- lymph node Concentration individual ([4]; 24 hr): BQL
- plasma Concentration Mean ([4]; 24 hr): BQL
- plasma Concentration individual ([4]; 24 hr): BQL
- spleen Concentration Mean ([4]; 24 hr): BQL
- spleen Concentration individual ([4]; 24 hr): BQL
- DNAUC0_20 ([3]; after PO dose of 5 mg/kg example 7 in male Wistar Han rat): not detected
Structure (SMILES): CCCCCCCCCCCCCCCC(=O)OCC(COC(=O)CCCCCCCCCCCCCCC)OC(=O)CC(C)CC(=O)OCOC(=O)C[C@@H](C)c1ccc(N(CC(C)C)C2CCOCC2)c(Nc2cnc(Cl)cn2)c1 (stereo partly drawn) [example 7, 1-(1,3-bis(palmitoyloxy)propan-2-yl) 5-((((R)-3-(3-((5-chloropyrazin-2-yl)amino)-4-(isobutyl(tetrahydro-2H-pyran-4-yl)amino)phenyl)butanoyl)oxy)methyl) 3-methylpentanedioate]
- PBMC TOX PXC50 [2]: <5

Structure (SMILES): CC(C)CN(c1ccc([C@H](C)CC(=O)O)cc1Nc1ccc(Cl)nc1)[C@H]1CC[C@H](O)CC1 [intermediate C2, (R)-3-(3-((6-chloropyridin-3-yl)amino)-4-(((1r,4R)-4 hydroxycyclohexyl)(isobutyl)amino)-phenyl)butanoic acid]
- PBMC TOX PXC50 [2]: <5

Structure (SMILES): CC(C)CN(c1ccc([C@H](C)CC(=O)O)cc1Nc1cnc(Cl)cn1)[C@H]1CC[C@H](O)CC1 [intermediate C3]
- PBMC TOX PXC50 [2]: <5

- DNAUC0_20 [3, 5]: 75 ng·h/mL
Structure (SMILES): CC(C)CN(c1ccc([C@H](C)CC(=O)O)cc1Nc1ccc(Cl)nc1)C1CCOCC1 [intermediate C5]
- PBMC TOX PXC50 [2]: <5
